Source: ChEMBL document CHEMBL3414448, “Advances in the discovery of novel antimicrobials targeting the assembly of bacterial cell division protein FtsZ” (Eur J Med Chem, 2015)
≈ marks a conversion by molar mass, not a printed value.

Assays:
[1] = molecular target: T1, Cell division protein FtsZ (Escherichia coli K-12, UniProt P0A9A6); assay: Inhibition of Escherichia coli FtsZ GTPase activity
T1 sequence (P0A9A6 whole entry): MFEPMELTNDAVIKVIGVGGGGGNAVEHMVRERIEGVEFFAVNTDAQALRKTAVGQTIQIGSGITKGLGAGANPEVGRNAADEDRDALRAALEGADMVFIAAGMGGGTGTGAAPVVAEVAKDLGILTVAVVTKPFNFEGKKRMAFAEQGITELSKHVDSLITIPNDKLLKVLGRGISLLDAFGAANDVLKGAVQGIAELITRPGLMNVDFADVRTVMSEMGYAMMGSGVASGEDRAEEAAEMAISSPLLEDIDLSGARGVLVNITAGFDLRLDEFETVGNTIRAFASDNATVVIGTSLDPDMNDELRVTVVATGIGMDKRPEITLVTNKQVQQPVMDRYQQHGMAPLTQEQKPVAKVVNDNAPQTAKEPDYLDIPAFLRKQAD

Bacillus subtilis [2] = assay: Antimicrobial activity against Bacillus subtilis; assay type: functional
Staphylococcus aureus [3] = assay: Antimicrobial activity against Staphylococcus aureus; assay type: functional
[4] = Selectivity index, ratio of IC50 for human HeLa cells to MIC for Staphylococcus aureus MR12160636
Bacillus subtilis [5] = assay: Antimicrobial activity against Bacillus subtilis 168; assay type: functional
Staphylococcus aureus [6] = assay: Antimicrobial activity against methicillin-sensitive Staphylococcus aureus ATCC 29213; assay type: functional
Enterococcus faecium [7] = assay: Antimicrobial activity against ampicillin-resistant and levofloxacin-resistant Enterococcus faecium 12160560; assay type: functional
Enterococcus faecalis [8] = assay: Antimicrobial activity against Enterococcus faecalis ATCC 29212; assay type: functional
Streptococcus pneumoniae = assay: Antimicrobial activity against Streptococcus pneumoniae ATCC 49619; assay type: functional
Acinetobacter baumannii = assay: Antimicrobial activity against multidrug-resistant Acinetobacter baumannii 12159796; assay type: functional
Pseudomonas aeruginosa = assay: Antimicrobial activity against Pseudomonas aeruginosa ATCC 27853; assay type: functional
Enterobacter cloacae = assay: Antimicrobial activity against multidrug-resistant Enterobacter cloacae 12161389; assay type: functional
Escherichia coli [9] = assay: Antimicrobial activity against Escherichia coli ATCC 35218; assay type: functional
Klebsiella pneumoniae = assay: Antimicrobial activity against ESBL producing Klebsiella pneumoniae ATCC 700603; assay type: functional
Staphylococcus aureus [10] = assay: Antimicrobial activity against methicillin-resistant Staphylococcus aureus; assay type: functional
Staphylococcus aureus [11] = assay: Antimicrobial activity against multidrug-resistant Staphylococcus aureus; assay type: functional
Enterococcus = assay: Antimicrobial activity against […]-resistant Enterococcus; assay type: functional
Staphylococcus [12] = assay: Antimicrobial activity against Staphylococcus; assay type: functional
Staphylococcus [13] = assay: Antimicrobial activity against Staphylococcus relative to PC190723; assay type: functional
[14] = molecular target: T1, Cell division protein FtsZ; assay: Binding affinity to Escherichia coli FtsZ by fluorescence anisotrophy
[15] = molecular target: T1, Cell division protein FtsZ; assay: Inhibition of Escherichia coli FtsZ polymerization
Enterococcus faecalis [16] = assay: Antimicrobial activity against Enterococcus faecalis; assay type: functional
Enterococcus faecium [17] = assay: Antimicrobial activity against Enterococcus faecium; assay type: functional
Escherichia coli [18] = assay: Antimicrobial activity against Escherichia coli; assay type: functional
Pseudomonas fluorescens = assay: Antimicrobial activity against Pseudomonas fluorescens; assay type: functional
[19] = Inhibition of FtsZ (unknown origin) assessed as reduction in enzyme GTPase activity
[20] = test system: Mycobacterium tuberculosis; assay: Antimicrobial activity against Mycobacterium tuberculosis; assay type: functional
[21] = molecular target: T2, Cell division protein FtsZ (Mycobacterium tuberculosis, UniProt P9WN95); assay: Binding affinity to Mycobacterium tuberculosis FtsZ
T2 sequence (P9WN95 whole entry): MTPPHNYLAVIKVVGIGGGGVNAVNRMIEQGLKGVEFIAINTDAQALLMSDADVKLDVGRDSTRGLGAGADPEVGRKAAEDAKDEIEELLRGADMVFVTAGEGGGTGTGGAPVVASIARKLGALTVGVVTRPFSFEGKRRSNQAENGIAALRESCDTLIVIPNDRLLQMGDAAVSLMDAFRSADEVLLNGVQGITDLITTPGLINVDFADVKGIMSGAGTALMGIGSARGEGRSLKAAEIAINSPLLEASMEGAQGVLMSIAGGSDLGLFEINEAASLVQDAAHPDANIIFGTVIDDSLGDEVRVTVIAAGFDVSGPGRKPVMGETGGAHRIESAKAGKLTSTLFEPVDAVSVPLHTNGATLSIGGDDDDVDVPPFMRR

Compound: O=C1C[C@@H](c2ccccc2)Oc2c(Cc3ccccc3O)c(O)c(Cc3ccccc3O)c(O)c21 [DICHAMANETIN]
- IC50 [1]: 12.5 µM
- MIC (Bacillus subtilis [2]): 5.01 µg/mL (≈ 10.7 µM)
- MIC (Staphylococcus aureus [3]): 0.8 µg/mL (≈ 1.71 µM)

Compound: O=C(Oc1cc(OC(=O)c2ccc(O)c(Cl)c2)c2ccccc2c1)c1ccc(O)c(Cl)c1
- Ratio [4]: 5
- MIC (Bacillus subtilis [5]): 4 µg/mL (≈ 8.52 µM)
- MIC (Staphylococcus aureus [6]): 8 µg/mL (≈ 17 µM)
- MIC (Enterococcus faecium [7]): 4 µg/mL (≈ 8.52 µM)
- MIC (Enterococcus faecalis [8]): 2 µg/mL (≈ 4.26 µM)
- MIC (Streptococcus pneumoniae): 32 µg/mL (≈ 68.2 µM)
- MIC (Acinetobacter baumannii): 32 µg/mL (≈ 68.2 µM)
- MIC (Pseudomonas aeruginosa): 64 µg/mL (≈ 136 µM)
- MIC (Enterobacter cloacae): 128 µg/mL (≈ 273 µM)
- MIC (Escherichia coli [9]): 128 µg/mL (≈ 273 µM)
- MIC (Klebsiella pneumoniae): 128 µg/mL (≈ 273 µM)

Compound: Oc1cc(O)c2c(c1)C/C(Cl)=C\Cc1cc(c(Cl)cc1O)Oc1c(O)cc(cc1O)C/C(Cl)=C\Cc1cc(c(Cl)cc1O)O2
- MIC (Staphylococcus aureus [10]): 1.5 µg/mL (≈ 2.21 µM)
- MIC (Staphylococcus aureus [11]): 1.3 µg/mL (≈ 1.92 µM)
- MIC (Enterococcus): 2.9 µg/mL (≈ 4.28 µM)

Compound: NC(=O)c1c(F)ccc(O[C@H](CO)c2nc(-c3ccc(C(F)(F)F)cc3)c(Br)o2)c1F
- MIC (Staphylococcus [12]): 0.12 µg/mL (≈ 0.237 µM)
- Ratio (Staphylococcus [13]): 4

Compound: N=C(N)c1ccc(-c2cc3ccc(C(=N)N)cc3[nH]2)cc1 [DAPI]
- Kd [14]: 16.6 µM

Compound: COC(=O)CC1Cc2cc3cc(OC)c(-c4c(OC)cc5cc6c(c(O)c5c4O)C(=O)OC(CC(=O)OC)C6)c(O)c3c(O)c2C(=O)O1 (stereo unspecified) [VIRIDITOXIN]
- IC50 [1]: 10.6 µM
- IC50 [15]: 12.4 µM
- MIC (Staphylococcus aureus [3]): 4 µg/mL (≈ 6.04 µM)
- MIC (Enterococcus faecalis [16]): 2 µg/mL (≈ 3.02 µM)
- MIC (Enterococcus faecium [17]): 2 µg/mL (≈ 3.02 µM)

Compound: COc1ccc(/N=C/c2ccc(OC(C)=O)c(OC)c2[N+](=O)[O-])cc1
- MIC (Bacillus subtilis [2]): 1.56 µg/mL (≈ 4.53 µM)
- MIC (Escherichia coli [18]): 1.56 µg/mL (≈ 4.53 µM)
- MIC (Staphylococcus aureus [3]): 1.56 µg/mL (≈ 4.53 µM)
- MIC (Pseudomonas fluorescens): 1.56 µg/mL (≈ 4.53 µM)

Compound: O=C(Oc1cc(OC(=O)c2cc(O)cc(O)c2)c2ccccc2c1)c1cc(O)c(O)c(O)c1
- MIC (Bacillus subtilis [5]): 16 µg/mL (≈ 35.7 µM)
- MIC (Staphylococcus aureus [6]): 16 µg/mL (≈ 35.7 µM)
- MIC (Enterococcus faecium [7]): 32 µg/mL (≈ 71.4 µM)
- MIC (Enterococcus faecalis [8]): 32 µg/mL (≈ 71.4 µM)
- MIC (Streptococcus pneumoniae): 32 µg/mL (≈ 71.4 µM)
- MIC (Acinetobacter baumannii): 64 µg/mL (≈ 143 µM)
- MIC (Pseudomonas aeruginosa): 64 µg/mL (≈ 143 µM)
- MIC (Enterobacter cloacae): 128 µg/mL (≈ 285 µM)
- MIC (Escherichia coli [9]): 128 µg/mL (≈ 285 µM)
- MIC (Klebsiella pneumoniae): 128 µg/mL (≈ 285 µM)

Compound: Cc1nc(-c2cccs2)cc([C@H]2CN3CC[C@H]2C[C@@H]3CNC(=O)CCCC(=O)O)n1
- MIC (Escherichia coli [18]): 192 µg/mL (≈ 449 µM)
- MIC (Staphylococcus aureus [3]): 384 µg/mL (≈ 897 µM)
- IC50 [19]: 317 µM

Compound: CCC(CC)c1cc([C@H]2CN3CC[C@H]2C[C@@H]3CNCc2ccc(CO)o2)nc(-c2ccncc2)n1
- MIC (Escherichia coli [18]): 36 µg/mL (≈ 75.7 µM)
- MIC (Staphylococcus aureus [3]): 24 µg/mL (≈ 50.5 µM)
- IC50 [19]: 73.2 µM

Compound: O=C(Oc1cc(OC(=O)c2cc(O)c(O)c(O)c2)c2ccccc2c1)c1cc(O)c(O)c(O)c1
- MIC (Bacillus subtilis [5]): 64 µg/mL (≈ 138 µM)
- MIC (Staphylococcus aureus [6]): 32 µg/mL (≈ 68.9 µM)
- MIC (Enterococcus faecium [7]): 64 µg/mL (≈ 138 µM)
- MIC (Enterococcus faecalis [8]): 64 µg/mL (≈ 138 µM)
- MIC (Streptococcus pneumoniae): 64 µg/mL (≈ 138 µM)
- MIC (Acinetobacter baumannii): 64 µg/mL (≈ 138 µM)
- MIC (Pseudomonas aeruginosa): 128 µg/mL (≈ 276 µM)
- MIC (Enterobacter cloacae): 128 µg/mL (≈ 276 µM)
- MIC (Escherichia coli [9]): 128 µg/mL (≈ 276 µM)
- MIC (Klebsiella pneumoniae): 128 µg/mL (≈ 276 µM)

Compound: CC(C)c1c(O)ccc2c1CC[C@H]1C(C)(C)CCC[C@]21C [TOTAROL]
- MIC (Escherichia coli [18]): > 400 µg/mL
- MIC (Staphylococcus aureus [3]): 1.5 µg/mL (≈ 5.24 µM)
- MIC [20]: 16 µg/mL (≈ 55.9 µM)
- Kd [21]: 11 µM
- IC50 [19]: 40.8 µM
- MIC (Bacillus subtilis [5]): 0.6 µg/mL (≈ 2.09 µM)
